According to patent publication US9522920B2, “Bromodomain inhibitors and uses thereof” (Constellation Pharmaceuticals, Inc., priority 2010, dated 2016):
Read-outs that look alike come from different tables or passages of the source.

Tests used:
IL-6 secretion = assay: Cell-based IL-6 quantification assay (ELISA, Mesoscale) in LPS-stimulated THP-1 cells; conditions: THP-1 cells, 16 h, read-out: IL6
Description: 100,000 THP-1 cells were seeded in RPMI1640-10% FBS in 96-well plates. LPS (E. Coli Invitrogen) in RPMI-10% FBS at a final concentration of 4 μg/mL was added to the wells and the cells are then incubated in the presence of various concentrations of compounds for 16 h. Plates are spun ([…], 5 min), an aliquot of 25 uL supernatant is transferred in to an ELISA plate (Mesoscale technology, MSD) and the detection of IL-6 is performed using manufacturer's instructions. The amount of cells in each well is assessed using CellTiter-Glo® (Promega). The ratio of ELISA value/CellTiter-Glo value is used to calculate the percent of inhibition of IL-6 secretion.

MYC mRNA = assay: cMyc RNA quantification assay (QuantiGene) in Raji cells; assay type: cell-based; conditions: Table 7, Raji (Burkitt's lymphoma) cells, 4 h
Description: MV4:11 (AML) or Raji (Burkitt's lymphoma) cells were seeded in a 96-well plate and incubated in the presence of various concentrations of compounds for 4 h. Relative mRNA levels were quantitated by using QuantiGene 2.0 assay (Affymetrix) according to the manufacturer's recommendation. Signals were detected by using an Envision plate reader (Perkin-Elmer). Biological duplicates were averaged and normalized to vehicle (DMSO) control to calculate percent MYC mRNA levels.

BRD4(BD1) = biological target: T1, BRD4(BD1) (Homo sapiens, UniProt O60885); assay: BRD4 AlphaLisa binding assay (Alphascreen)
T1 construct: His; made in house
Description: Specifically, in a 384 well ProxiPlate BRD4(BD1) (30 nM final) was combined with peptide (200 nM final) in 40 mM HEPES (pH 7.0), 40 mM NaCl, 1 mM DTT, 0.01% (w/v) BSA, and 0.008% (w/v) Brij-35 either in the presence of DMSO (final 1.2% DMSO) or compound dilution series in DMSO. After 20 minute incubation at room temperature Alpha streptavidin donor beads and AlphaLisa anti-Flag acceptor beads were added to a final concentration of 10 ug/mL each. After three hours equilibration plates were read on an Envision instrument and IC50s calculated using a four parameter non-linear curve fit.

[1] = Homo sapiens, THP-1, 16 h, Table 7, LPS 4 μg/mL, normalised to CellTiter-Glo
[2] = Table 6, BRD4(BD1) 30 nM, H4-tetraacetyl peptide 200 nM, read-out: BRD4 Alphascreen IC50
[3] = Table 7, LPS 4 μg/mL, normalised to CellTiter-Glo
[4] = Table 14, BRD4 AlphaLisa Binding Assay, read-out: Alpha screen
[5] = Homo sapiens, THP-1, 16 h, Table 14, LPS

Row | Structure (SMILES) | IC50 (MYC mRNA; Homo sapiens) [nM] | IC50 (BRD4(BD1); [2]) [nM] | IC50 (MYC mRNA) [nM] | IC50 (IL-6 secretion; [1]) [nM] | IC50 (IL-6 secretion; [3]) [nM] | other results
1 | Cc1cccc2c1C(c1ccncc1)=N[C@@H](CC(N)=O)c1onc(C)c1-2 [Compound 131] |  | < 500 | < 500 |  | < 500 | 
2 | Cc1cccc2c1C(c1ccc(Cl)cn1)=N[C@@H](CC(N)=O)c1onc(C)c1-2 [Compound 133] |  | < 500 | 500 to 1000 |  | < 500 | 
3 | Cc1cccc2c1C(c1ccc(C(N)=O)cc1)=N[C@@H](CC(N)=O)c1onc(C)c1-2 [Compound 134] |  | < 500 | 500 to 1000 |  | < 500 | 
4 | COc1ccc(C2=N[C@@H](CC(N)=O)c3onc(C)c3-c3cccc(C)c32)cc1 [Compound 135] |  | < 500 | < 500 |  | < 500 | 
5 | Cc1noc2c1-c1cccc(Cl)c1C(c1ccc(F)cc1)=N[C@H]2CC(N)=O [Compound 138] |  | < 500 | < 500 |  | < 500 | 
6 | Cc1noc2c1-c1cccc(Cl)c1C(c1ccc(C#N)cc1)=N[C@H]2CC(N)=O [Compound 140] |  | < 500 | < 500 |  | < 500 | 
7 | Cc1noc2c1-c1ccc(Cl)cc1C(c1ccc(Cl)cc1)=N[C@H]2CC(N)=O [Compound 141] |  | < 500 | > 1000 |  | < 500 | 
8 | Cc1noc2c1-c1ccc(Cl)cc1C(c1ccc(C#N)cc1)=N[C@H]2CC(N)=O [Compound 142] |  | < 500 | 500 to 1000 |  | < 500 | 
9 | CCNC(=O)C[C@@H]1N=C(c2ccc(C#N)cc2)c2cc(Cl)ccc2-c2c(C)noc21 [Compound 143] |  | < 500 | 500 to 1000 |  | < 500 | 
10 | COc1cccc(C2=N[C@@H](CC(N)=O)c3onc(C)c3-c3ccccc32)c1 [Compound 147] |  | < 500 | 500 to 1000 |  | < 500 | 
11 | CCNC(=O)C[C@@H]1N=C(c2ccc(C#N)cc2)c2ccccc2-c2c(C)noc21 [Compound 149] |  | < 500 | < 500 |  | < 500 | 
12 | COCCNC(=O)C[C@@H]1N=C(c2ccc(C#N)cc2)c2ccccc2-c2c(C)noc21 [Compound 150] |  | < 500 | < 500 |  | < 500 | 
13 | Cc1noc2c1-c1ccccc1C(N1CCOCC1)=N[C@H]2CC(N)=O [Compound 152] | > 1000 | > 1000 |  | > 1000 |  | 
14 | CCNC(=O)C[C@@H]1N=C(c2ccc(Cl)cc2)c2ccccc2-c2c(C)noc21 [Compound 159, 2-((4S)-6-(4-chlorophenyl)-1-methyl-4H-benzo[c]isoxazolo[4,5-e]azepin-4-yl)-N-ethylacetamide] | < 500 | < 500 |  | < 500 |  | 
15 | COC(=O)NC[C@@H]1N=C(c2ccc(Cl)cc2)c2c(sc(C)c2C)-c2c(C)noc21 [Compound 183, Methyl (((6S)-4-(4-chlorophenyl)-2,3,9-trimethyl-6H-isoxazolo[5,4-c]thieno[2,3-e]azepin-6-yl)methyl)carbamate] |  | < 500 |  | 500 to 1000 |  | 
16 | Cc1noc2c1-c1sc(C)c(C)c1C(Nc1ccc(Cl)cc1)=N[C@H]2CC(N)=O [Compound 185, 2-((6S)-4-((4-Chlorophenyl)amino)-2,3,9-trimethyl-6H-isoxazolo[5,4-c]thieno[2,3-e]azepin-6-yl)acetamide] |  | > 1000 |  | > 1000 |  | 
17 | Cc1noc2c1-c1sc(C)c(C)c1C(OC(C)C)=N[C@H]2CC(N)=O [Compound 193] |  |  |  |  |  | IC50 (IL-6 secretion; Table 14, LPS): > 1000 nM; IC50 (BRD4(BD1); [4]): 500 to 1000 nM
18 | Cc1noc2c1-c1sc(C)c(C)c1C(C1CCN(C)CC1)=N[C@H]2CC(N)=O [Compound 194] |  |  |  |  |  | IC50 (IL-6 secretion; Table 14, LPS): > 1000 nM; IC50 (BRD4(BD1); [4]): > 1000 nM
19 | Cc1noc2c1-c1sc(C)c(C)c1C(C(C)c1ccccc1)=N[C@H]2CC(N)=O (stereo partly drawn) [Compound 195] |  |  |  |  |  | IC50 (IL-6 secretion; Table 14, LPS): > 1000 nM; IC50 (BRD4(BD1); [4]): > 1000 nM
20 | CC(=O)NC1N=C(c2ccc(C#N)cc2)c2ccccc2-c2c(C)noc21 (stereo not drawn) [Compound 263, N-(6-(4-cyanophenyl)-1-methyl-4,1-benzo[c]isoxazolo[4,5-e]azepin-4-yl)acetamide] |  |  |  |  |  | IC50 (IL-6 secretion; [5]): < 500 nM; IC50 (BRD4(BD1); [4]): < 500 nM
21 | Cc1noc2c1-c1c[nH]c(=O)cc1C(c1ccc(Cl)cc1)=NC2 [Compound 266, 6-(4-Chlorophenyl)-1-methyl-4H-isoxazolo[5,4-c]pyrido[3,4-e]azepin-8(9H)-one] |  |  |  |  |  | IC50 (IL-6 secretion; [5]): < 500 nM; IC50 (BRD4(BD1); [4]): < 500 nM
22 | CCNC(=O)NC1N=C(c2ccc(C#N)cc2)c2ccccc2-c2c(C)noc21 (stereo not drawn) [compound 261] |  |  |  |  |  | IC50 (IL-6 secretion; Table 14, LPS): < 500 nM; IC50 (BRD4(BD1); [4]): < 500 nM
23 | Cc1noc2c1-c1ccccc1C(c1ccc(C#N)cc1)=NC2NC(=O)C(C)C (stereo not drawn) [compound 264] |  |  |  |  |  | IC50 (IL-6 secretion; Table 14, LPS): > 1000 nM; IC50 (BRD4(BD1); [4]): > 1000 nM

Continued, in another order:

Row | IC50 (MYC mRNA; Homo sapiens) [nM] | IC50 (BRD4(BD1); [2]) [nM] | IC50 (MYC mRNA) [nM] | Structure (SMILES) | IC50 (IL-6 secretion; [1]) [nM] | IC50 (IL-6 secretion; [3]) [nM] | other results
24 | < 500 | < 500 |  | Cc1noc2c1-c1sc(C)c(C)c1C(c1ccc(N)nc1)=NC2CC(N)=O (stereo not drawn) [Compound 102] | < 500 |  | 
25 | < 500 | < 500 |  | Cc1noc2c1-c1sc(C)c(C)c1C(c1ccc(Cl)cn1)=NC2CC(N)=O (stereo not drawn) [Compound 103] | < 500 |  | 
26 | < 500 | < 500 |  | Cc1noc2c1-c1sc(C)c(C)c1C(c1ccccc1)=NC2CC(N)=O (stereo not drawn) [Compound 108] | < 500 |  | 
27 | < 500 | < 500 |  | Cc1noc2c1-c1sc(C)c(C)c1C(c1ccc(F)cc1)=NC2CC(N)=O (stereo not drawn) [Compound 109] | < 500 |  | 
28 | < 500 | < 500 |  | Cc1cc(Cl)ccc1C1=NC(CC(N)=O)c2onc(C)c2-c2sc(C)c(C)c21 (stereo not drawn) [Compound 112] | < 500 |  | 
29 | < 500 | < 500 |  | CCNC(=O)CC1N=C(c2ccc(C#N)cc2)c2c(sc(C)c2C)-c2c(C)noc21 (stereo not drawn) [Compound 113] | < 500 |  | 
30 | < 500 | < 500 |  | Cc1noc2c1-c1sc(C)c(C)c1C(c1ccc(C#N)cc1)=NC2CC(N)=O (stereo not drawn) [Compound 115] | < 500 |  | 
31 | < 500 | < 500 |  | Cc1noc2c1-c1sc(C)c(C)c1C(c1ccc(C(N)=O)cc1)=NC2CC(N)=O (stereo not drawn) [Compound 116] | < 500 |  | 
32 | < 500 | < 500 |  | CC(=O)Nc1ccc(C2=NC(CC(N)=O)c3onc(C)c3-c3sc(C)c(C)c32)cc1 (stereo not drawn) [Compound 118] | < 500 |  | 
33 | 500 to 1000 | < 500 |  | Cc1noc2c1-c1sc(C)c(C)c1C(c1ccc(=O)n(C)c1)=NC2CC(N)=O (stereo not drawn) [Compound 120] | < 500 |  | 
34 | > 1000 | < 500 |  | CCCC1=NC(CC(N)=O)c2onc(C)c2-c2sc(C)c(C)c21 (stereo not drawn) [Compound 124] | 500 to 1000 |  | 
35 | > 1000 | < 500 |  | Cc1noc2c1-c1sc(C)c(C)c1C(C1CCCCC1)=NC2CC(N)=O (stereo not drawn) [Compound 126] | < 500 |  | 
36 | 500 to 1000 | < 500 |  | Cc1noc2c1-c1cccc(Cl)c1C(c1ccncc1)=N[C@H]2CC(N)=O [Compound 137] | < 500 |  | 
37 | < 500 | < 500 |  | COc1ccc(C2=N[C@@H](CC(N)=O)c3onc(C)c3-c3ccccc32)cc1 [Compound 146] | < 500 |  | 
38 | < 500 | < 500 |  | CCOC(=O)NC1N=C(c2ccc(Cl)cc2)c2ccccc2-c2c1noc2C (stereo not drawn) [Compound 155, Ethyl (6-(4-chlorophenyl)-1-methyl-4H-benzo[c]isoxazolo[4,3-e]azepin-4-yl)carbamate] | 500 to 1000 |  | 
